Test results: US11447482B1, “Imidazopyridine and oxazolopyridine derivatives and analogs thereof, methods of preparation thereof, methods of HIF-2A pathway inhibition, and induction of ferroptosis” (KUDA Therapeutics, Inc., priority 2019, dated 2022)
Several values for one entry are separate records, joined by “and”; a condition that tells them apart may be missing. Equal entries are not always repeated. Where two headings read alike, the source gives them in different places.

Experiments:
HIF-2α = test: Western blot of treated 786-0 cells: HIF-2α; type: cell-based, human; conditions: 786-0 CCRCC cells, 24 hours
Method: (§1) Western blots were performed to determine the effects of the compounds on levels of HIF-2α and other relevant proteins. 786-0 (pVHL deficient clear cell kidney cancer cells) were purchased from ATCC were plated at 1×10E5 cells/well in 2 ml DMEM with 10% FBS/well in 6-well tissue culture plates. Cells were allowed to adhere overnight in a humidified incubator at 37° C. with 5% CO2, after which the appropriate concentrations of compounds in DMSO were added. DMSO concentrations were kept constant in all wells. After 24 hour's exposure to the compounds, cells were lysed and subjected to western blotting according to standard protocols (Polek, Talpaz et al. 2003). Antibodies for HIF-2α and Glyceraldehyde 3-Phosphate Dehydrogenase (GAPDH) were purchased from Cell Signaling Technology (Danvers, Mass.), whereas antibodies to iron responsive element binding protein 2 (IRP2) and Glutathione Peroxidase 4 (GPX4) were from Santa Cruz Biotechnology (Dallas, Tex.) and R&D Systems, Inc (Minneapolis, Minn.). Representative data in FIG. 3 show a dose-dependent effect of compounds in decreasing HIF-2α. Compounds also impact cellular iron sensing given by increased IRP2, which taken together indicate that cells sense decreased amounts of available iron. Representative data shown in FIG. 5 Part C show a dose dependent effect of the compounds on GPX4, which may indicate decreased resistance to ferroptosis.

IRP2 = test: Western blot of treated 786-0 cells: IRP2; type: cell-based, human
Method: as §1

GPX4 = test: Western blot of treated 786-0 cells: GPX4; type: cell-based, human; conditions: higher concentrations of compound, FIG. 4 Part D
Method: as §1

[1] = Bioavailability determination of KD025HCl in mice (plasma levels after IV or PO); type: in vivo; conditions: for MRT last: read-out: MRT0-last
Method: To determine the bioavailability KD025HCl, serum concentrations of KD025HCl were determined after varying durations following oral or intravenous (IV) administration. Doses were validated by LC/MS/MS.
For IV administration, 264 μl of N-Methyl-2-Pyrrolidone (NMP) was added to 1.221 mg of KD025HCl, and the solution vortexed and sonicated until complete dissolution. Then, 2.374 ml of 10% (v/v) solutol in water for injection was added, and the solution vortexed, then sonicated with a bath sonicator. The final dosing formulation of a brownish colored clear solution. A single 2 mg/kg dose (5 ml/kg) was administered IV each to nine male Swiss albino mice.
For oral administration (PO), […] of Tween-80 was added to 3.38 mg of KD025HCl, triturated, then 2.893 ml of 0.5% methyl cellulose was added in parts with continuous trituration then vortexed. The final dosing formulation was a brownish colored clear solution. A single 10 mg/kg dose (10 ml/kg) was administered PO each to nine male Swiss albino mice.
Calibration Curve & QC preparation: 2.0 μl of calibration curve standards were added to […] of blank matrix and precipitated with 200 μl of Acetonitrile containing an internal standard at 200 ng/ml. The solution was vortexed for 5 min at 850 rpm, then centrifuged at 4000 rpm for 5 min at 4° C. 110 μl of the supernatant was obtained and diluted with 130 μl of (Methanol:water, 1:1 v/v). Sample Preparation: 50 μl of sample was precipitated with 200 μl of Acetonitrile containing the internal standard at 200 ng/ml. The mixture was vortexed for 5 min at 850 rpm, then centrifuged at 4000 rpm for 5 min at 4° C. 110 μL of supernatant was obtained and diluted with 130 μL of (Methanol:water, 1:1 v/v).
Using this procedure, the plasma levels of KD025HCl after either IV or PO administration was determined, and bioavailability as well as other pharmacokinetic parameters were determined and shown in Table 6.

[2] = IV 2.00 mg/kg, 24.00 h, Swiss albino mice, BLQ: Below limits of quantitation
[3] = IV 2.00 mg/kg, Swiss albino mice, plasma
[4] = male, mouse, IV 2.00 mg/kg, Swiss albino mice, plasma
[5] = male, mouse, PO 10.00 mg/kg, Swiss albino mice, plasma

COc1ccc(-c2nnc(Nc3nc4c(OC)nccc4[nH]3)o2)cc1OC [KD025HCl, N-(4-Methoxy-1H-imidazo[4,5-c]pyridin-2-yl)-5-(3,4-dimethoxyphenyl)-1,3,4-oxadiazol-2-amine]
HIF-2α protein relative to GAPDH (western blot) (HIF-2α): decreases | IRP2 protein relative to GAPDH (western blot) (IRP2; 786-0 CCRCC cells, 24 hours): increases | IRP2 protein (western blot) at higher concentrations (IRP2; 786-0 cells, higher concentrations of KD025HCl, FIG. 4 Part D): decrease | GPX4 protein (western blot) (GPX4): decrease | Plasma concentration, individual animals (M1-, M2-, M3-) ([1]; IV 2.00 mg/kg, 0.08 h, Swiss albino mice, 2 mg/kg): 3949.80 ng/mL and 3776.46 ng/mL | Plasma concentration, individual animals (M1-, M2-, M3-) ([1]; IV 2.00 mg/kg, 0.25 h, Swiss albino mice, 2 mg/kg): 2069.26 ng/mL and 3078.66 ng/mL | Plasma concentration, individual animals (M1-, M2-, M3-) ([1]; IV 2.00 mg/kg, 0.50 h, Swiss albino mice, 2 mg/kg): 1527.09 ng/mL and 2079.24 ng/mL | Plasma concentration, individual animals (M1-, M2-, M3-) ([1]; IV 2.00 mg/kg, 1.00 h, Swiss albino mice, 2 mg/kg): 282.26 ng/mL and 11135.53 ng/mL and 952.05 ng/mL | Plasma concentration, individual animals (M1-, M2-, M3-) ([1]; IV 2.00 mg/kg, 2.00 h, Swiss albino mice, 2 mg/kg): 277.23 ng/mL and 334.05 ng/mL and 611.15 ng/mL | Plasma concentration, individual animals (M1-, M2-, M3-) ([1]; IV 2.00 mg/kg, 4.00 h, Swiss albino mice, 2 mg/kg): 31.51 ng/mL and 45.40 ng/mL | Plasma concentration, individual animals (M1-, M2-, M3-) ([1]; IV 2.00 mg/kg, 8.00 h, Swiss albino mice, 2 mg/kg): 11.09 ng/mL and 28.55 ng/mL and 16.02 ng/mL | Plasma concentration, Mean [1, 2]: BLQ | Plasma concentration, individual animals (M1-, M2-, M3-) [1, 2]: BLQ | AUCExtra [1, 3]: 1.15% | Co [1, 3]: 5481.64 ng/mL | Plasma concentration, individual animals (M1-, M2-, M3-) ([1]; PO 10.00 mg/kg, 0.25 h, Swiss albino mice, 10 mg/kg): 1609.45 ng/mL and 742.75 ng/mL and 1428.60 ng/mL | Plasma concentration, individual animals (M1-, M2-, M3-) ([1]; PO 10.00 mg/kg, 0.50 h, Swiss albino mice, 10 mg/kg): 1712.09 ng/mL and 2056.44 ng/mL | Plasma concentration, individual animals (M1-, M2-, M3-) ([1]; PO 10.00 mg/kg, 1.00 h, Swiss albino mice, 10 mg/kg): 784.84 ng/mL and 1081.06 ng/mL | Plasma concentration, individual animals (M1-, M2-, M3-) ([1]; PO 10.00 mg/kg, 2.00 h, Swiss albino mice, 10 mg/kg): 861.31 ng/mL and 1052.53 ng/mL | Plasma concentration, individual animals (M1-, M2-, M3-) ([1]; PO 10.00 mg/kg, 4.00 h, Swiss albino mice, 10 mg/kg): 179.52 ng/mL and 94.08 ng/mL and 235.20 ng/mL | Plasma concentration, individual animals (M1-, M2-, M3-) ([1]; PO 10.00 mg/kg, 6.00 h, Swiss albino mice, 10 mg/kg): 93.52 ng/mL and 126.29 ng/mL | Plasma concentration, individual animals (M1-, M2-, M3-) ([1]; PO 10.00 mg/kg, 8.00 h, Swiss albino mice, 10 mg/kg): 50.78 ng/mL and 99.61 ng/mL | Plasma concentration, Mean ([1]; PO 10.00 mg/kg, 24.00 h, Swiss albino mice, BLQ: Below limits of quantitation): BLQ | Plasma concentration, individual animals (M1-, M2-, M3-) ([1]; PO 10.00 mg/kg, 24.00 h, Swiss albino mice, BLQ: Below limits of quantitation, 10 mg/kg): BLQ | AUCExtra ([1]; PO 10.00 mg/kg, Swiss albino mice, plasma): 9.83% | concentration at 0.08 h ([1]; male, Swiss albino, mouse, plasma, iv, 2 mg/kg, IV 2.00 mg/kg, 0.08 h, read-out: Plasma concentration, Mean): 4170 ng/mL | concentration at 0.08 h ([1]; male, Swiss albino, mouse, plasma, iv, 2 mg/kg, IV 2.00 mg/kg, 0.08 h, read-out: Plasma concentration, individual animals (M1-, M2-, M3-)): 4790 ng/mL | concentration at 0.25 h ([1]; male, Swiss albino, mouse, plasma, iv, 2 mg/kg, IV 2.00 mg/kg, 0.25 h, read-out: Plasma concentration, Mean): 2340 ng/mL | concentration at 0.25 h ([1]; male, Swiss albino, mouse, plasma, iv, 2 mg/kg, IV 2.00 mg/kg, 0.25 h, read-out: Plasma concentration, individual animals (M1-, M2-, M3-)): 1860 ng/mL | concentration at 0.5 h ([1]; male, Swiss albino, mouse, plasma, iv, 2 mg/kg, IV 2.00 mg/kg, 0.50 h, read-out: Plasma concentration, Mean): 1700 ng/mL | concentration at 0.5 h ([1]; male, Swiss albino, mouse, plasma, iv, 2 mg/kg, IV 2.00 mg/kg, 0.50 h, read-out: Plasma concentration, individual animals (M1-, M2-, M3-)): 1480 ng/mL | concentration at 1 h ([1]; male, Swiss albino, mouse, plasma, iv, 2 mg/kg, IV 2.00 mg/kg, 1.00 h, read-out: Plasma concentration, Mean): 790 ng/mL | concentration at 2 h ([1]; male, Swiss albino, mouse, plasma, iv, 2 mg/kg, IV 2.00 mg/kg, 2.00 h, read-out: Plasma concentration, Mean): 407 ng/mL | concentration at 4 h ([1]; male, Swiss albino, mouse, plasma, iv, 2 mg/kg, IV 2.00 mg/kg, 4.00 h, read-out: Plasma concentration, Mean): 38 ng/mL | concentration at 4 h ([1]; male, Swiss albino, mouse, plasma, iv, 2 mg/kg, IV 2.00 mg/kg, 4.00 h, read-out: Plasma concentration, individual animals (M1-, M2-, M3-)): 37.2 ng/mL | concentration at 8 h ([1]; male, Swiss albino, mouse, plasma, iv, 2 mg/kg, IV 2.00 mg/kg, 8.00 h, read-out: Plasma concentration, Mean): 18.6 ng/mL | Vd ([1]; male, Swiss albino, mouse, plasma, iv, 2 mg/kg, IV 2.00 mg/kg, plasma, read-out: Vd): 1.24 L/kg | Vd ([1]; male, Swiss albino, mouse, plasma, iv, 2 mg/kg, IV 2.00 mg/kg, plasma, read-out: Vss): 0.72 L/kg | concentration at 0.25 h ([1]; male, Swiss albino, mouse, plasma, po, 10 mg/kg, PO 10.00 mg/kg, 0.25 h, read-out: Plasma concentration, Mean): 1260 ng/mL | concentration at 0.5 h ([1]; male, Swiss albino, mouse, plasma, po, 10 mg/kg, PO 10.00 mg/kg, 0.50 h, read-out: Plasma concentration, Mean): 1910 ng/mL | concentration at 0.5 h ([1]; male, Swiss albino, mouse, plasma, po, 10 mg/kg, PO 10.00 mg/kg, 0.50 h, read-out: Plasma concentration, individual animals (M1-, M2-, M3-)): 1970 ng/mL | concentration at 1 h ([1]; male, Swiss albino, mouse, plasma, po, 10 mg/kg, PO 10.00 mg/kg, 1.00 h, read-out: Plasma concentration, Mean): 1140 ng/mL | concentration at 1 h ([1]; male, Swiss albino, mouse, plasma, po, 10 mg/kg, PO 10.00 mg/kg, 1.00 h, read-out: Plasma concentration, individual animals (M1-, M2-, M3-)): 1570 ng/mL | concentration at 2 h ([1]; male, Swiss albino, mouse, plasma, po, 10 mg/kg, PO 10.00 mg/kg, 2.00 h, read-out: Plasma concentration, Mean): 953 ng/mL | concentration at 2 h ([1]; male, Swiss albino, mouse, plasma, po, 10 mg/kg, PO 10.00 mg/kg, 2.00 h, read-out: Plasma concentration, individual animals (M1-, M2-, M3-)): 945 ng/mL | concentration at 4 h ([1]; male, Swiss albino, mouse, plasma, po, 10 mg/kg, PO 10.00 mg/kg, 4.00 h, read-out: Plasma concentration, Mean): 170 ng/mL | concentration at 6 h ([1]; male, Swiss albino, mouse, plasma, po, 10 mg/kg, PO 10.00 mg/kg, 6.00 h, read-out: Plasma concentration, Mean): 127 ng/mL | concentration at 6 h ([1]; male, Swiss albino, mouse, plasma, po, 10 mg/kg, PO 10.00 mg/kg, 6.00 h, read-out: Plasma concentration, individual animals (M1-, M2-, M3-)): 160 ng/mL | concentration at 8 h ([1]; male, Swiss albino, mouse, plasma, po, 10 mg/kg, PO 10.00 mg/kg, 8.00 h, read-out: Plasma concentration, Mean): 78.6 ng/mL | concentration at 8 h ([1]; male, Swiss albino, mouse, plasma, po, 10 mg/kg, PO 10.00 mg/kg, 8.00 h, read-out: Plasma concentration, individual animals (M1-, M2-, M3-)): 85.5 ng/mL | concentration at 24 h ([1]; male, Swiss albino, mouse, plasma, po, 10 mg/kg, PO 10.00 mg/kg, 24.00 h, BLQ: Below limits of quantitation, read-out: Plasma concentration, individual animals (M1-, M2-, M3-)): 1.79 ng/mL | bioavailability ([1]; male, mouse, plasma, PO 10.00 mg/kg versus IV 2.00 mg/kg, Swiss albino mice, read-out: Bio availability (% f)): 27.3% | AUC(0-inf) [1, 4]: 3050 ng·h/mL | AUC(0-t) [1, 4]: 3010 ng·h/mL | clearance [1, 4]: 10.9 mL/min/kg | half-life [1, 4]: 1.31 h | MRT last [1, 4]: 0.99 h | AUC(0-inf) [1, 5]: 4160 ng·h/mL | AUC(0-t) [1, 5]: 3750 ng·h/mL | Cmax [1, 5]: 1910 ng/mL | Tmax [1, 5]: 0.5 h | half-life [1, 5]: 3.61 h | MRT last [1, 5]: 2.03 h
